Measurements: US20190008870A1, “COMPOSITIONS AND METHODS FOR LIPID METABOLISM DISORDER” (JANSFAT BIOTECHNOLOGY CO., LTD., priority 2016, published 2019)

Legend:
SR-B1 = assay: HFD-induced hepatic SR-B1 expression; type: in vivo; details: HFD mice; for SR-B1: CTL 100 (Table 8); for SR-B1 expression: Control 100%
Description: (§1) In the experiment, C57BL/6J male mice (21-22 g), after fasting, were fed an HFD as a model of hyperlipidemia for 8 weeks. During the 2 month experiments, mice fasted for one night before the experiment was changed from a standard diet (STD) to an HFD and then the mice were randomly divided into 13 groups, including a protection group, 2 control and 10 treatment groups. Six mice were used in each group. […] Liver from the protection group supplemented with KMUP-1 HCl (1 mg/kg/day) were used to determine the HMG CoA reductase expression. Each group of mice had free access to drinking water from week 1 to week 14. Tap water was used to normalize mineral nutrition.
(§2) For the expression of SR-B1, HMGR, PPARγ and ROCK II, isolated liver tissues were cut into small chips and placed into an extraction buffer (Tris 10 mM, pH 7.0, NaCl 140 mM, PMSF 2 mM, DTT 5 mM, NP-40 0.5%, pepstatin A 0.05 mM and leupeptin 0.2 mM) for hepatic protein extraction, and centrifuged at 20,000×g for 30 minutes. The obtained protein extract was boiled to a ratio of 4:1 with a sample buffer (Tris 100 mM, pH 6.8, glycerol 20%, SDS 4% and bromophenol blue 0.2%). Electrophoresis was performed using 10% SDS-polyacrylamide gel (1 hour, 100 V, 40 mA, 20 μg protein per lane).
(§3) Separated proteins, after 3 repeated centrifugations to discard up-layer tissue lipid in purity, were transferred to PVDF membranes treated with 5% fat-free milk powder to block the nonspecific IgGs (90 minutes, 100 V) and incubated for 1 hour with specific protein antibody. The blot was then incubated with anti-mouse or anti-goat IgG linked to alkaline phosphatase (1:1000) for 1 hour.

PKA/PKG = assay: Hepatic PKA/PKG expression in HFD mice; type: in vivo; details: Control printed 550%
ROCK II = assay: HFD-induced ROCK II expression in liver; type: in vivo, mice; details: for ROCK II: HFD mice, CTL 100
Description: as §1, §2, §3

ABCA1 [1] = assay: HFD-induced ABCA1 expression in liver; type: in vivo, mice
HMG CoA reductase = HMG CoA reductase expression in HepG2 cells (Western blotting); type: cell-based; details: for HMGR (%): 24 hours, CTL 100; for HMG CoA expression: Mevalonate (100 μM) + drug (10^−5 M), Control 100
Description: (§4) The HepG2 hepatoma cell line was purchased from the American Type Culture Collection (ATCC, Manassas, Va., U.S.A.). Cells were cultured in Dulbecco's Modified Eagle's Medium (DMEM). The culture media was supplemented with 5% heat-inactivated FBS, penicillin (100 U/mL) and streptomycin (100 μg/mL). Cells were grown in a humidified atmosphere containing 5% CO2 at 37° C., in which the oxygen tension in the incubator was held at 140 mmHg (20% O2, v/v; normoxic conditions). […] Then the targeted drugs solution was incubated with the cells for 24 hours, followed by protein extraction. The targeted drugs were added to the […].
HepG2 cells were treated with various concentrations of targeted drugs for 24 hours. Reactions were terminated by washing twice with cold PBS, and the cells were then harvested. Proteins in the whole-cell lysate were homogenized in an ice-cold lysis buffer and a protease inhibitor (Sigma-Aldrich, St. Louis, Mo., U.S.A.). The homogenate was centrifuged at 90,000×g for 15 minutes at 4° C., and supernatant was recovered as the total cellular protein. Cytosolic and membrane fractions of HepG2 cells were prepared using a CNM (Cytosol Nuclear Membrane) compartmental protein extraction kit (BioChain Institute Inc., Hayward, Calif., U.S.A.) according to the manufacturer's instructions. All of the fractionated protein solutions were stored at −80° C. until analysis. To measure the expression levels of proteins by drugs, the total cell protein was extracted after incubation with treatments for 24 hours and then Western blotting analysis was performed as described previously.

PPARγ = PPARγ expression in HepG2 cells; type: cell-based; details: for PPARγ expression: 10^−5 M, 24 hours, Control 100, Vehicle 260
Description: (§5) The HepG2 hepatoma cell line was purchased from the American Type Culture Collection (ATCC, Manassas, Va., U.S.A.). Cells were cultured in Dulbecco's Modified Eagle's Medium (DMEM). […] Then the targeted drugs solution was incubated with the cells for 24 hours, followed by protein extraction. […] HepG2 cells were treated with various concentrations of targeted drugs for 24 hours. Reactions were terminated by washing twice with cold PBS, and the cells were then harvested. Proteins in the whole-cell lysate were homogenized in an ice-cold lysis buffer and a protease inhibitor (Sigma-Aldrich, St. Louis, Mo., U.S.A.). The homogenate was centrifuged at 90,000×g for 15 minutes at 4° C., and supernatant was recovered as the total cellular protein. Cytosolic and membrane fractions of HepG2 cells were prepared using a CNM (Cytosol Nuclear Membrane) compartmental protein extraction kit (BioChain Institute Inc., Hayward, Calif., U.S.A.) according to the manufacturer's instructions. All of the fractionated protein solutions were stored at −80° C. until analysis. To measure the expression levels of proteins by drugs, the total cell protein was extracted after incubation with treatments for 24 hours and then Western blotting analysis was performed as described previously.

ABCA1 [2] = assay: ABCA1 expression in HepG2 cells; type: cell-based; details: for ABCA1 expression: 10^−5 M, 24 hours, Control 100, Vehicle 110
Description: as §5

ApoA-I = ApoA-I expression in HepG2 cells; type: cell-based; details: 10^−9-10^−5 M
Description: as §4
(§6) HepG2 cells were treated with various concentrations of targeted drugs for 24 hours. Reactions were terminated by washing twice with cold PBS, and the cells were then harvested. Proteins in the whole-cell lysate were homogenized in an ice-cold lysis buffer and a protease inhibitor (Sigma-Aldrich, St. Louis, Mo., U.S.A.). The homogenate was centrifuged at 90,000×g for 15 minutes at 4° C., and supernatant was recovered as the total cellular protein. […]

LXRα = LXRα expression in HepG2 cells; type: cell-based; details: 10^−9-10^−5 M
Description: as §4, §6

HSL = HSL immunoreactivity in HepG2 cells; type: cell-based; details: 24 hours
Description: To determine that KMUP-1 or targeted drugs can affect PKA, we incubated KMUP-1 (10^−4, 10^−5, 10^−6 M) or targeted drugs with HepG2 cells for 24 hours to measure the protein expressions of PKA/PKG by Western blotting or PKA/PKG and HSL immunoreactivities by fluorescence staining, combined with image scanning in the absence or presence of oxidized LDL (200 μg/mL).

[3] = drinking KMUP-1, Protection group
[4] = drinking KMUP-1, Treatment group
[5] = HepG2 cells, GGPP (10 μM) + drug 10^−5 M
[6] = HepG2 cells, GGPP (10 μM) + drug 10^−6 M
[7] = HepG2 cells, GGPP (10 μM) + drug 10^−7 M
[8] = HepG2 cells, GGPP (10 μM) + drug 10^−8 M
[9] = HepG2 cells, GGPP (10 μM) + drug 10^−9 M
[10] = Simva 5 mg/kg, CTL 100 (Table 9)

Work on `Cn1c(=O)c2c(ncn2CCN2CCN(c3ccccc3Cl)CC2)n(C)c1=O` [KMUP-1, 7-[2-[4-(2-chlorophenyl)piperazinyl]ethyl]-1,3-dimethylxanthine] yielded an SR-B1 (SR-B1; Protection group) of 29%, an SR-B1 expression (SR-B1; [3]) of 30% and an SR-B1 expression (SR-B1; [4]) of 59%. The SR-B1 (SR-B1; treatment 2.5 mg/200 mL drink) was 59%, the PKA/PKG expression (PKA/PKG; [3]) was 250% and the PKA/PKG expression (PKA/PKG; [4]) was 100%. The “ROCK II” value (ROCK II; 1 mg/kg) was 30%, the “ROCK II” value (ROCK II; 2.5 mg/kg) was 25% and the “ROCK II” value (ROCK II; 5 mg/kg) was 10%. The ABCA1 (ABCA1 [1]; HFD mice, 1 mg/kg, CTL 100) was 98%, the ABCA1 (ABCA1 [1]; HFD mice, 2.5 mg/kg, CTL 100) was 190% and the ABCA1 (ABCA1 [1]; HFD mice, 5 mg/kg, CTL 100) was 200%. For the same compound, the “HMGR (%)” value (HMG CoA reductase; 10^−5 M) was 270%, the “HMGR (%)” value (HMG CoA reductase; 10^−6 M) was 220% and the “HMGR (%)” value (HMG CoA reductase; 10^−7 M) was 210%. The “HMGR (%)” value (HMG CoA reductase; 10^−8 M) was 125%, the “HMGR (%)” value (HMG CoA reductase; 10^−9 M) was 120% and the “HMG CoA expression” value (HMG CoA reductase) was 62%. For the same compound, the “expression of PPARγ” value (PPARγ; HepG2, 10^−9-10^−5 M) was “increased”, the “increase of PPARγ” value (PPARγ; HepG2 cells) was 2-3 folds and the PPARγ expression (PPARγ; HepG2 cells) was 595. For the same compound, the PPARγ (PPARγ; HepG2 cells, FPP (10 μM) + drug 10^−5 M) was 138%, the PPARγ (PPARγ; HepG2 cells, FPP (10 μM) + drug 10^−6 M) was 140% and the PPARγ (PPARγ; HepG2 cells, FPP (10 μM) + drug 10^−7 M) was 142%. It also gave a PPARγ (PPARγ; HepG2 cells, FPP (10 μM) + drug 10^−8 M) of 84%, a PPARγ (PPARγ; HepG2 cells, FPP (10 μM) + drug 10^−9 M) of 72% and a PPARγ (PPARγ; [5]) of 120%. It also gave a PPARγ (PPARγ; [6]) of 106%, a PPARγ (PPARγ; [7]) of 108% and a PPARγ (PPARγ; [8]) of 90%. The PPARγ (PPARγ; [9]) was 78%, the “expression of ABCA1” value (ABCA1 [2]; HepG2, 10^−9-10^−5 M) was “increased” and the ABCA1 expression (ABCA1 [2]; HepG2 cells) was 200. The “expression of ABCA1 suppressed by FPP or GGPP” value (ABCA1 [2]; HepG2 cells, FPP or GGPP (10 μM) + 10^−9-10^−5 M) was “reversed”, the ApoA-I expression (ApoA-I) was “concentration-dependently increased” and the LXRα expression (LXRα) was “concentration-dependently increased”. For the same compound, the “HSL immunoreactivity (green fluorescence)” value (HSL) was “increased”.
With `CCC(C)(C)C(=O)O[C@H]1C[C@@H](C)C=C2C=C[C@H](C)[C@H](CC[C@@H]3C[C@@H](O)CC(=O)O3)[C@H]21` [Simva, Simvastatin, reference compound] the ROCKII (ROCK II; [10]) was 43%, the ABCA1 (ABCA1 [1]; [10]) was 100% and the “HMGR (%)” value (HMG CoA reductase; 10^−5 M) was 280%. For the same compound, the “HMGR (%)” value (HMG CoA reductase; 10^−8 M) was 152%, the “HMGR (%)” value (HMG CoA reductase; 10^−9 M) was 150% and the “HMG CoA expression” value (HMG CoA reductase) was 50%. It also gave a PPARγ expression (PPARγ; HepG2 cells) of 350, a PPARγ (PPARγ; [5]) of 46% and a PPARγ (PPARγ; [6]) of 46%. For the same compound, the PPARγ (PPARγ; [7]) was 44%, the PPARγ (PPARγ; [8]) was 40% and the PPARγ (PPARγ; [9]) was 46%. The ABCA1 expression (ABCA1 [2]; HepG2 cells) was 146.
